According to US3960833A, “Butirosin A 3",5"-O-isopropylidene derivatives” (Bristol-Myers Company, priority 1975, dated 1976):
Values after ≈ are worked out from the molar mass of the structure shown.

Legend:
Assay type in all cases: cell-based
S. aureus Smith = assay: MIC by Steers agar-dilution method on Mueller-Hinton medium; settings: Staphylococcus aureus; S. aureus Smith; Mueller-Hinton medium; read-out: MIC
Description: (§1) Illustrated below is a table showing the minimal inhibitory concentrations (MIC's) of butirosin A, 4'-deoxybutirosin A and compound 11 (BB-K186) against a variety of gram-positive and gram-negativebacteria as obtained by the Steers agar-dilution method on Mueller-Hinton medium.

E. coli A20732 = assay: as above; settings: Escherichia coli; E. coli A20732; Mueller-Hinton medium; read-out: MIC
Description: as §1

S. aureus D133 = assay: as above; settings: Staphylococcus aureus; S. aureus D133; Mueller-Hinton medium; read-out: MIC
Description: as §1

Ser. marcescens A21247 = assay: as above; settings: Serratia marcescens; Ser. marcescens A21247; Mueller-Hinton medium; read-out: MIC
Description: as §1

E. coli R5 = assay: as above; settings: Escherichia coli; E. coli R5; Mueller-Hinton medium; read-out: MIC
Description: as §1

S. aureus D193 = assay: as above; settings: Staphylococcus aureus; S. aureus D193; Mueller-Hinton medium; read-out: MIC
Description: as §1

E. coli PO1495 = assay: as above; settings: Escherichia coli
Description: as §1

S. aureus A20239 = assay: as above; settings: Staphylococcus aureus; S. aureus A20239; Mueller-Hinton medium; read-out: MIC
Description: as §1

Ps. aeruginosa A20635 = assay: as above; settings: Pseudomonas aeruginosa; Ps. aeruginosa A20635; Mueller-Hinton medium; read-out: MIC
Description: as §1

Ps. aeruginosa A20896 = assay: as above; settings: Pseudomonas aeruginosa; Ps. aeruginosa A20896; Mueller-Hinton medium; read-out: MIC
Description: as §1

E. coli NR79/W677 = assay: as above; settings: Escherichia coli
Description: as §1

Pr. mirabilis A9554 = assay: as above; settings: Proteus mirabilis; Pr. mirabilis A9554; Mueller-Hinton medium; read-out: MIC
Description: as §1

Pseudomonas sp. A20621 = assay: as above; settings: Pseudomonas sp. A20621; Mueller-Hinton medium; read-out: MIC
Description: as §1

Ps. aeruginosa A20601 = assay: as above; settings: Pseudomonas aeruginosa; Ps. aeruginosa A20601; Mueller-Hinton medium; read-out: MIC
Description: as §1

Ent. cloacae A20364 = assay: as above; settings: Enterobacter cloacae; Ent. cloacae A20364; Mueller-Hinton medium; read-out: MIC
Description: as §1

Ent. cloacae A21006 = assay: as above; settings: Enterobacter cloacae; Ent. cloacae A21006; Mueller-Hinton medium; read-out: MIC
Description: as §1

E. coli A20107 = assay: as above; settings: Escherichia coli; E. coli A20107; Mueller-Hinton medium; read-out: MIC
Description: as §1

Ps. aeruginosa GN-315 = assay: as above; settings: Pseudomonas aeruginosa, GN315; Ps. aeruginosa GN-315; Mueller-Hinton medium; read-out: MIC
Description: as §1

Ser. marcescens A20019 = assay: as above; settings: Serratia marcescens; Ser. marcescens A20019; Mueller-Hinton medium; read-out: MIC
Description: as §1

E. coli JR66/W677 = assay: as above; settings: Escherichia coli
Description: as §1

Prov. stuartii A20894 = assay: as above; settings: Providencia stuartii; Prov. stuartii A20894; Mueller-Hinton medium; read-out: MIC
Description: as §1

Pr. vulgaris A9436 = assay: as above; settings: Proteus vulgaris; Pr. vulgaris A9436; Mueller-Hinton medium; read-out: MIC
Description: as §1

E. coli NIHJ = assay: as above; settings: Escherichia coli; E. coli NIHJ; Mueller-Hinton medium; read-out: MIC
Description: as §1

E. coli JR35/C600 = assay: as above; settings: Escherichia coli
Description: as §1

E. coli ML1630 = assay: as above; settings: Escherichia coli; E. coli ML1630; Mueller-Hinton medium; read-out: MIC
Description: as §1

S. aureus D137 = assay: as above; settings: Staphylococcus aureus; S. aureus D137; Mueller-Hinton medium; read-out: MIC
Description: as §1

K. pneumoniae 22-3038 = assay: as above; settings: Klebsiella pneumoniae, 223038; K. pneumoniae 22-3038; Mueller-Hinton medium; read-out: MIC
Description: as §1

E. coli A20895 = assay: as above; settings: Escherichia coli; E. coli A20895; Mueller-Hinton medium; read-out: MIC
Description: as §1

Ps. aeruginosa No. 130 = assay: as above; settings: Pseudomonas aeruginosa; Ps. aeruginosa No. 130; Mueller-Hinton medium; read-out: MIC
Description: as §1

Ps. aeruginosa A9930 = assay: as above; settings: Pseudomonas aeruginosa; Ps. aeruginosa A9930; Mueller-Hinton medium; read-out: MIC
Description: as §1

K. pneumoniae D11 = assay: as above; settings: Klebsiella pneumoniae; K. pneumoniae D11; Mueller-Hinton medium; read-out: MIC
Description: as §1

Pr. morganii A20031 = assay: as above; settings: Morganella morganii; Pr. morganii A20031; Mueller-Hinton medium; read-out: MIC
Description: as §1

Pseudomonas aeruginosa = assay: Antibacterial activity against Pseudomonas aeruginosa (MIC, Steers agar-dilution method); settings: in words
Description: as §1

[1] = tested on: a variety of gram-positive and gram-negative bacteria; assay: Antibacterial activity overall (MIC, Steers agar-dilution method); settings: in words
Description: as §1

NCC[C@H](O)C(=O)N[C@@H]1C[C@H](N)[C@@H](O[C@H]2O[C@H](CN)C[C@H](O)[C@H]2N)[C@H](O[C@@H]2O[C@H](CO)[C@H](O)[C@H]2O)[C@H]1O [Bu-1975C1, 4'-deoxybutirosin A]
MIC (S. aureus Smith): 1.6 µg/mL (≈ 2.97 µM) | MIC (E. coli A20732): 1.6 µg/mL (≈ 2.97 µM) | MIC (S. aureus D133): 6.3 µg/mL (≈ 11.7 µM) | MIC (Ser. marcescens A21247): 6.3 µg/mL (≈ 11.7 µM) | MIC (E. coli R5): 3.1 µg/mL (≈ 5.75 µM) | MIC (S. aureus D193): 3.1 µg/mL (≈ 5.75 µM) | MIC (E. coli PO1495): 1.6 µg/mL (≈ 2.97 µM) | MIC (S. aureus A20239): 6.3 µg/mL (≈ 11.7 µM) | MIC (Ps. aeruginosa A20635): > 100 µg/mL | MIC (Ps. aeruginosa A20896): 50 µg/mL (≈ 92.7 µM) | MIC (E. coli NR79/W677): > 100 µg/mL | MIC (Pr. mirabilis A9554): 1.6 µg/mL (≈ 2.97 µM) | MIC (Pseudomonas sp. A20621): > 100 µg/mL | MIC (Ps. aeruginosa A20601): 25 µg/mL (≈ 46.3 µM) | MIC (Ent. cloacae A20364): 3.1 µg/mL (≈ 5.75 µM) | MIC (Ent. cloacae A21006): 6.3 µg/mL (≈ 11.7 µM) | MIC (E. coli A20107): 3.1 µg/mL (≈ 5.75 µM) | MIC (Ps. aeruginosa GN-315): > 100 µg/mL | MIC (Ser. marcescens A20019): 6.3 µg/mL (≈ 11.7 µM) | MIC (E. coli JR66/W677): 6.3 µg/mL (≈ 11.7 µM) | MIC (Prov. stuartii A20894): > 100 µg/mL | MIC (Pr. vulgaris A9436): 0.8 µg/mL (≈ 1.48 µM) | MIC (E. coli NIHJ): 1.6 µg/mL (≈ 2.97 µM) | MIC (E. coli JR35/C600): 0.8 µg/mL (≈ 1.48 µM) | MIC (E. coli ML1630): 3.1 µg/mL (≈ 5.75 µM) | MIC (S. aureus D137): 25 µg/mL (≈ 46.3 µM) | MIC (K. pneumoniae 22-3038): 6.3 µg/mL (≈ 11.7 µM) | MIC (E. coli A20895): 3.1 µg/mL (≈ 5.75 µM) | MIC (Ps. aeruginosa No. 130): 25 µg/mL (≈ 46.3 µM) | MIC (Ps. aeruginosa A9930): 1.6 µg/mL (≈ 2.97 µM) | MIC (K. pneumoniae D11): 0.8 µg/mL (≈ 1.48 µM) | MIC (Pr. morganii A20031): 3.1 µg/mL (≈ 5.75 µM)

NCC[C@H](O)C(=O)N[C@@H]1C[C@H](N)[C@@H](O[C@H]2O[C@H](CN)[C@@H](O)C[C@H]2N)[C@H](O[C@@H]2O[C@H](CO)[C@H](O)[C@H]2O)[C@H]1O [Compound 11, 3'-deoxybutirosin A]
activity against Pseudomonas aeruginosa (Pseudomonas aeruginosa): particularly improved in its activity against Pseudomonas aeruginosa | MIC (S. aureus Smith): 0.8 µg/mL (≈ 1.48 µM) | MIC (E. coli A20732): 1.6 µg/mL (≈ 2.97 µM) | MIC (S. aureus D133): 3.1 µg/mL (≈ 5.75 µM) | MIC (Ser. marcescens A21247): 3.1 µg/mL (≈ 5.75 µM) | MIC (E. coli R5): 3.1 µg/mL (≈ 5.75 µM) | MIC (S. aureus D193): 1.6 µg/mL (≈ 2.97 µM) | MIC (E. coli PO1495): 1.6 µg/mL (≈ 2.97 µM) | MIC (S. aureus A20239): 3.1 µg/mL (≈ 5.75 µM) | MIC (Ps. aeruginosa A20635): 25 µg/mL (≈ 46.3 µM) | MIC (Ps. aeruginosa A20896): 50 µg/mL (≈ 92.7 µM) | MIC (E. coli NR79/W677): > 100 µg/mL | MIC (Pr. mirabilis A9554): 1.6 µg/mL (≈ 2.97 µM) | MIC (Pseudomonas sp. A20621): 100 µg/mL (≈ 185 µM) | MIC (Ps. aeruginosa A20601): 12.5 µg/mL (≈ 23.2 µM) | MIC (Ent. cloacae A20364): 1.6 µg/mL (≈ 2.97 µM) | MIC (Ent. cloacae A21006): 3.1 µg/mL (≈ 5.75 µM) | MIC (E. coli A20107): 3.1 µg/mL (≈ 5.75 µM) | MIC (Ps. aeruginosa GN-315): > 100 µg/mL | MIC (Ser. marcescens A20019): 6.3 µg/mL (≈ 11.7 µM) | MIC (E. coli JR66/W677): 3.1 µg/mL (≈ 5.75 µM) | MIC (Prov. stuartii A20894): 25 µg/mL (≈ 46.3 µM) | MIC (Pr. vulgaris A9436): 0.4 µg/mL (≈ 0.741 µM) | MIC (E. coli NIHJ): 1.6 µg/mL (≈ 2.97 µM) | MIC (E. coli JR35/C600): 0.8 µg/mL (≈ 1.48 µM) | MIC (E. coli ML1630): 3.1 µg/mL (≈ 5.75 µM) | MIC (S. aureus D137): 12.5 µg/mL (≈ 23.2 µM) | MIC (K. pneumoniae 22-3038): 3.1 µg/mL (≈ 5.75 µM) | MIC (E. coli A20895): 3.1 µg/mL (≈ 5.75 µM) | MIC (Ps. aeruginosa No. 130): 12.5 µg/mL (≈ 23.2 µM) | MIC (Ps. aeruginosa A9930): 0.8 µg/mL (≈ 1.48 µM) | MIC (K. pneumoniae D11): 0.8 µg/mL (≈ 1.48 µM) | MIC (Pr. morganii A20031): 3.1 µg/mL (≈ 5.75 µM) | antibacterial activity compared with butirosin A and 4'-deoxybutirosin A [1]: good antibacterial activity that in many respects is superior to butirosin A itself and in some respects superior to 4'-deoxybutirosin A | antibacterial activity compared with butirosin A and 4'-deoxybutirosin A ([1]; listed as compound 11): equal to or superior in most respects to butirosin A and 4'-deoxybutirosin A
